Results as given in US20240101602A1, “ANTIMICROBIAL PEPTIDES AND METHOD OF PREVENTING OR TREATING INFECTION BY USING THE SAME” (priority 2020, published 2024).

Columns and labels:
Eco DH5α = assay: MIC and MBC by serial dilution in 96-well plate; type: cell-based, Escherichia coli; conditions: Table 7
In short: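 Log-phase bacteria in rich or minimal medium were adjusted to OD600=0.08, diluted 100-fold, and mixed 1:1 with 2-fold serial peptide dilutions (final 0–32 μg/mL). Plates were incubated at the optimal temperature without shaking. MBC is the lowest peptide concentration yielding no colonies.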

[1] = tested on: Klebsiella pneumonia NTUH-K2044
[2] = tested on: Pseudomonas syringae pv. tomato strain DC3000
[3] = tested on: Ralstonia solanacearum strain Pss190; conditions: Rs Pss190; optimal minimal medium, crude peptides (Table 9)
Botrytis cinerea = type: cell-based; conditions: Bc; optimal minimal medium, crude peptides (Table 9)
[4] = tested on: Agrobacterium tumefaciens strain Atu C58C1
Cgl FST02 = type: cell-based, Colletotricum gloeosporioides; conditions: Cgl FST02; optimal minimal medium, crude peptides (Table 9)

Question: How did the MBC (Eco DH5α) turn out when Ac-WKKLKKLLKKL-NH2 [pepD3] was run?
Answer: 13.5 µg/mL

Question: And the MIC (Eco DH5α)?
Answer: 10.5 µg/mL

Question: What about the MBC [1] of the same substance?
Answer: 16 µg/mL

Question: What about the MIC [1] of the same substance?
Answer: 16 µg/mL

Question: What about the MBC [2] of the same substance?
Answer: 17.3 µg/mL

Question: And the MIC [2]?
Answer: 9.3 µg/mL

Question: What about the MBC/MFC [3] of the same substance?
Answer: — (“—” indicates no antimicrobial activity being detected at the highest peptide concentration (32 μg/mL) tested in this study.)

Question: And the MIC [3]?
Answer: — (“—” indicates no antimicrobial activity being detected at the highest peptide concentration (32 μg/mL) tested in this study.)

Question: And the MBC/MFC (Botrytis cinerea)?
Answer: — (“—” indicates no antimicrobial activity being detected at the highest peptide concentration (32 μg/mL) tested in this study.)

Question: And the MIC (Botrytis cinerea)?
Answer: — (“—” indicates no antimicrobial activity being detected at the highest peptide concentration (32 μg/mL) tested in this study.)

Question: What about the MBC [4] of the same substance?
Answer: 2.4 µg/mL

Question: And the MBC/MFC (Cgl FST02)?
Answer: — (“—” indicates no antimicrobial activity being detected at the highest peptide concentration (32 μg/mL) tested in this study.)

Question: What about the MIC (Cgl FST02) of the same substance?
Answer: — (“—” indicates no antimicrobial activity being detected at the highest peptide concentration (32 μg/mL) tested in this study.)
